Reference: US20230295152A1 (SENDA BIOSCIENCES, INC., priority 2019, published 2023)

Target: T1, AHR (Homo sapiens, UniProt P35869)
T1 construct: other cell line with a DRE-luciferase reporter stably transfected; endogenous in cells; host or cells: HepG2 AhR-Lucia reporter cells
T1 sequence (P35869 11-848): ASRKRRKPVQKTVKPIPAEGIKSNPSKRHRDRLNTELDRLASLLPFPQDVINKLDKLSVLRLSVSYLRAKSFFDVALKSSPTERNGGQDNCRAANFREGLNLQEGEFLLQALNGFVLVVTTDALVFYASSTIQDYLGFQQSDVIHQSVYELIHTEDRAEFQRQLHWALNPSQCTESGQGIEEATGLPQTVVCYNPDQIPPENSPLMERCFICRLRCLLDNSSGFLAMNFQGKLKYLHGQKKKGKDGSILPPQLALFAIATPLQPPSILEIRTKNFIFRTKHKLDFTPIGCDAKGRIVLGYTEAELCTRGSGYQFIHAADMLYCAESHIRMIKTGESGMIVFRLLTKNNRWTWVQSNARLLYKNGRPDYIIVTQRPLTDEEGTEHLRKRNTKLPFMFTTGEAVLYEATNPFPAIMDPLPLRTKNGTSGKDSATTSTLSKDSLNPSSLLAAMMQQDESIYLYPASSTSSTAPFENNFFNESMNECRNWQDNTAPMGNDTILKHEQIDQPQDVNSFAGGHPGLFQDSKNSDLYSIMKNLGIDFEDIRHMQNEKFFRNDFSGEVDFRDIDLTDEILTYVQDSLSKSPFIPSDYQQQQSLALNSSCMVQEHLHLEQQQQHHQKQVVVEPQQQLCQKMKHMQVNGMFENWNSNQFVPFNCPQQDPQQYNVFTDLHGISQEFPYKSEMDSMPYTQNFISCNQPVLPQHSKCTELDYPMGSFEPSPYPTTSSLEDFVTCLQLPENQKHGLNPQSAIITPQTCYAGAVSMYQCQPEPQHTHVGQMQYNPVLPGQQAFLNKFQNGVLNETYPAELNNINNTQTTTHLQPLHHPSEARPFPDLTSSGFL
Assay: DRE-Luciferase Reporter Assay, HepG2 AhR-Lucia reporter cells
Assay type: cell-based
Details: with AHR activating ligand at EC50, read-out: HepG2-Luc IC50
Text: AHR binds to Dioxin Responsive Elements (DRE) upstream of genes that it activates. One measure of AHR activity is activation of a reporter gene, such as luciferase, downstream of one or multiple DRE elements. Luciferase activity will reflect activation and inhibition of AHR in the cells expressing his reporter. 20000 Human HepG2 liver carcinoma—AhR-Lucia reporter cells or Human HT29 colon adenocarcinoma—AhR reporter cells or other cell line with a DRE-luciferase reporter stably transfected were plated in Eagle's Minimal Essential Medium, 10% heat-inactivated FBS, 1× non-essential amino acids Pen-Strep (10,000 U/mL) and Normocin (100 ug/mL) in plates (96-well, 384-well or other plates) and incubated overnight at 37° C. in a CO2 incubator and treated with and without AhR antagonists at a log dilution starting at 100 uM.
After 1 hr that cells were plated an AHR activating ligand, such as TCDD, kynurenine, ITE (2-(1H-indole-3-ylcarbonyl)-4-thiazolecarboxylic methyl ester), VAF347, BNF (beta-naphthoflavone), FICZ (6-formylindolo(3,2-b) carbazole) or other AHR ligands at their specific EC50 concentration, were added to the cells with or without AHR antagonist.
Cells were incubated for 24 or 48 hours or another time point and then, supernatant was analyzed for determination of luciferase activity as a read-out of the AHR activation or inhibition. Luciferase was measured with the commercial kit QUANTI-Luc™ assay solution kit from Invivogen following the manufacturer's instructions.
The level of luciferase with only agonist ligand added was the maximum signal while the luciferase with […] was the minimum signal. IC50 values were determined as the concentration which inhibits half of the luciferase activity.

Structure (SMILES)	IC50 [nM]
O=c1c2cc(-c3ccc(C(F)(F)F)nc3)nc(-c3cccnc3)c2ncn1-c1cccnc1 [Compound 118, 3,8-di(pyridin-3-y1)-6-(6-(trifluoromethyl)pyridin-3-yl)pyrido[3,4-d]pyrimidin-4(3H)-one]	< 100
O=c1[nH]cnc2c(-c3cccnc3)nc(-c3ccc(C(F)(F)F)nc3)cc12 [Compound 119, 8-(pyridin-3-y1)-6-(6-(trifluoromethyl)pyridin-3-yl)pyrido[3,4-d]pyrimidin-4(3H)-one]	< 100
O=c1c2cc(-c3ccc(C4CC4)nc3)nc(-c3cccnc3)c2ncn1C[C@@H](O)C(F)(F)F [Compound 121, (R)-6-(6-cyclopropylpyridin-3-yl)-8-(pyridin-3-yl)-3-(3,3,3-trifluoro-2-hydroxypropyl)pyrido[3,4-d]pyrimidin-4(3H)-one]	< 100
COC(=O)[C@H](C)n1cnc2c(-c3cccnc3)nc(-c3ccc(C(F)(F)F)nc3)cc2c1=O [Compound 127, Methyl (S)-2-(4-oxo-8-(pyridin-3-yl)-6-(6-(trifluoromethyl)pyridin-3-yl)pyrido[3,4-d]pyrimidin-3(4H)-yl)propanoate]	< 100
CN1CC(O)C(n2cnc3c(-c4cccnc4)nc(-c4ccc(Cl)cc4)cc3c2=O)C1 (stereo not shown) [Compound 128, 6-(4-chlorophenyl)-3-(4-hydroxy-1-methylpyrrolidin-3-yl)-8-(pyridin-3-yl)pyrido[3,4-d]pyrimidin-4(3H)-one]	< 100
O=c1c2cc(-c3ccc(C(F)(F)F)nc3)nc(-c3cccnc3)c2ncn1C1CCCC1 [Compound 132, 3-cyclopentyl-8-(pyridin-3-yl)-6-(6-(trifluoromethyl)pyridin-3-yl)pyrido[3,4-d]pyrimidin-4(3H)-one]	< 100
O=c1c2cc(-c3ccc(C(F)(F)F)nc3)nc(-c3cccnc3)c2ncn1-c1ccccc1 [Compound 133, 3-phenyl-8-(pyridin-3-yl)-6-(6-(trifluoromethyl)pyridin-3-yl)pyrido[3,4-d]pyrimidin-4(3H)-one]	< 100
Cn1cc(-c2nc(-c3ccc(C4CC4)nc3)cc3c(=O)n(C[C@@H](O)C(F)(F)F)cnc23)cn1 [Compound 135, (R)-6-(6-cyclopropylpyridin-3-yl)-8-(1-methyl-1H-pyrazol-4-yl)-3-(3,3,3-trifluoro-2-hydroxypropyl)pyrido[3,4-d]pyrimidin-4(3H)-one]	< 100

The next lines start with the values.

IC50 [nM]	Structure (SMILES)
< 100	C[C@@H](O)Cn1cnc2c(-c3cnn(C)c3)nc(-c3ccc(C(F)(F)F)nc3)cc2c1=O [Compound 108, (R)-3-(2-hydroxypropyl)-8-(1-methyl-1H-pyrazol-4-yl)-6-(6-(trifluoromethyl)pyridin-3-yl)pyrido[3,4-d]pyrimidin-4(3H)-one]
< 100	Cn1cc(-c2nc(-c3ccc(C(F)(F)F)nc3)cc3c(=O)n([C@@H]4COC[C@@H]4O)cnc23)cn1 [Compound 130, 3-((3R,4R)-4-hydroxytetrahydrofuran-3-yl)-8-(1-methyl-1H-pyrazol-4-yl)-6-(6-(trifluoromethyl)pyridin-3-yl)pyrido[3,4-d]pyrimidin-4(3H)-one]
< 100	Cn1cc(-c2nc(-c3ccc(Cl)cc3)cc3c(=O)n([C@@H]4COC[C@@H]4O)cnc23)cn1 [Compound 131, 6-(4-chlorophenyl)-3-((3R,4R)-4-hydroxytetrahydrofuran-3-yl)-8-(1-methyl-1H-pyrazol-4-yl)pyrido[3,4-d]pyrimidin-4(3H)-one]
< 100	Cn1cc(-c2nc(-c3ccc(C(F)(F)F)cn3)cc3c(=O)n([C@H]4COC[C@@H]4O)cnc23)cn1 [Compound 137, 3-((3S,4R)-4-hydroxytetrahydrofuran-3-yl)-8-(1-methyl-1H-pyrazol-4-yl)-6-(5-(trifluoromethyl)pyridin-2-yl)pyrido[3,4-d]pyrimidin-4(3H)-one]
< 100	Cn1cc(-c2nc(-c3ccc(C(F)(F)F)cn3)cc3c(=O)n([C@@H]4COC[C@H]4O)cnc23)cn1 [Compound 138, 3-((3R,4S)-4-hydroxytetrahydrofuran-3-yl)-8-(1-methyl-1H-pyrazol-4-yl)-6-(5-(trifluoromethyl)pyridin-2-yl)pyrido[3,4-d]pyrimidin-4(3H)-one]
